Values of other authors as cited in patent US9180090B2, “Non-sedating antihistamine injection formulations and methods of use thereof” (JDP THERAPEUTICS, INC., priority 2009, dated 2015).

Assays:
[1] = for Major (potential drug interactions) / Minor (potential drug interactions) / Moderate (potential drug interactions): number of interactions per drugs.com
[2] = oral

SMILES | Major (potential drug interactions) [1] | Minor (potential drug interactions) [1] | Moderate (potential drug interactions) [1] | Disease state interaction ([1]; per drugs.com) | AUC0-24 (single dose) ([2]; single dose) | AUC(single dose)0-inf ([2]; single dose) | AUCss ([2]; steady state)
O=C(O)COCCN1CCN(C(c2ccccc2)c2ccc(Cl)cc2)CC1 (racemic) [Cetirizine, (±)-[2-[4-[(4-chlorophenyl)phenylmethyl]-1-piperazinyl]ethoxy]acetic acid] | 0 | 5 | 568 | Renal/Liver Disease |  |  | 
OCCOCCN1CCN(C(c2ccccc2)c2ccc(Cl)cc2)CC1 (racemic) [Hydroxyzine] | 17 | 6 | 622 |  |  |  | 
Clc1ccc2c(c1)CCc1cccnc1C2=C1CCNCC1 [desloratadine] |  |  |  |  | AUC0-24 (single dose) = about 34.2 ng · hr/mL | AUC(single dose)0-inf = about 35.6 ng/hr/mL | AUCss = about 56.9 ng · hr/mL
